From US20250114345A1, “COMPOUNDS AND COMPOSITIONS AS CBP/P300 DEGRADERS AND USES THEREOF” (Oncopia Therapeutics, Inc. d/b/a/ SK Life Science Labs, priority 2023, published 2025) come the findings set out here.

One assay concerns the target T1, p300 (Homo sapiens, UniProt Q09472).
T1 construct: host or cells: A549 P300 HiBit cells
The assay can be described thus: P300 degradation, HiBit technology in A549 P300 HiBit cells (2 h). It is filed as cell-based. The conditions noted are these: 2 hrs post treatment; for Dmax: A549, A549 P300 HiBit cells. The method, boiled down:
(§1)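 Degradation potency and Dmax came from HiBiT luminescence in tagged A549 cells treated with serially diluted compound (DMSO stocks at 10 mM) after overnight equilibration in F-12K with 10% heat-inactivated FBS.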

The target in the next assay is T2, CBP (Homo sapiens, UniProt Q92793).
T2 construct: host or cells: A549 CBP HiBit cells
T2 sequence (Q92793 whole entry): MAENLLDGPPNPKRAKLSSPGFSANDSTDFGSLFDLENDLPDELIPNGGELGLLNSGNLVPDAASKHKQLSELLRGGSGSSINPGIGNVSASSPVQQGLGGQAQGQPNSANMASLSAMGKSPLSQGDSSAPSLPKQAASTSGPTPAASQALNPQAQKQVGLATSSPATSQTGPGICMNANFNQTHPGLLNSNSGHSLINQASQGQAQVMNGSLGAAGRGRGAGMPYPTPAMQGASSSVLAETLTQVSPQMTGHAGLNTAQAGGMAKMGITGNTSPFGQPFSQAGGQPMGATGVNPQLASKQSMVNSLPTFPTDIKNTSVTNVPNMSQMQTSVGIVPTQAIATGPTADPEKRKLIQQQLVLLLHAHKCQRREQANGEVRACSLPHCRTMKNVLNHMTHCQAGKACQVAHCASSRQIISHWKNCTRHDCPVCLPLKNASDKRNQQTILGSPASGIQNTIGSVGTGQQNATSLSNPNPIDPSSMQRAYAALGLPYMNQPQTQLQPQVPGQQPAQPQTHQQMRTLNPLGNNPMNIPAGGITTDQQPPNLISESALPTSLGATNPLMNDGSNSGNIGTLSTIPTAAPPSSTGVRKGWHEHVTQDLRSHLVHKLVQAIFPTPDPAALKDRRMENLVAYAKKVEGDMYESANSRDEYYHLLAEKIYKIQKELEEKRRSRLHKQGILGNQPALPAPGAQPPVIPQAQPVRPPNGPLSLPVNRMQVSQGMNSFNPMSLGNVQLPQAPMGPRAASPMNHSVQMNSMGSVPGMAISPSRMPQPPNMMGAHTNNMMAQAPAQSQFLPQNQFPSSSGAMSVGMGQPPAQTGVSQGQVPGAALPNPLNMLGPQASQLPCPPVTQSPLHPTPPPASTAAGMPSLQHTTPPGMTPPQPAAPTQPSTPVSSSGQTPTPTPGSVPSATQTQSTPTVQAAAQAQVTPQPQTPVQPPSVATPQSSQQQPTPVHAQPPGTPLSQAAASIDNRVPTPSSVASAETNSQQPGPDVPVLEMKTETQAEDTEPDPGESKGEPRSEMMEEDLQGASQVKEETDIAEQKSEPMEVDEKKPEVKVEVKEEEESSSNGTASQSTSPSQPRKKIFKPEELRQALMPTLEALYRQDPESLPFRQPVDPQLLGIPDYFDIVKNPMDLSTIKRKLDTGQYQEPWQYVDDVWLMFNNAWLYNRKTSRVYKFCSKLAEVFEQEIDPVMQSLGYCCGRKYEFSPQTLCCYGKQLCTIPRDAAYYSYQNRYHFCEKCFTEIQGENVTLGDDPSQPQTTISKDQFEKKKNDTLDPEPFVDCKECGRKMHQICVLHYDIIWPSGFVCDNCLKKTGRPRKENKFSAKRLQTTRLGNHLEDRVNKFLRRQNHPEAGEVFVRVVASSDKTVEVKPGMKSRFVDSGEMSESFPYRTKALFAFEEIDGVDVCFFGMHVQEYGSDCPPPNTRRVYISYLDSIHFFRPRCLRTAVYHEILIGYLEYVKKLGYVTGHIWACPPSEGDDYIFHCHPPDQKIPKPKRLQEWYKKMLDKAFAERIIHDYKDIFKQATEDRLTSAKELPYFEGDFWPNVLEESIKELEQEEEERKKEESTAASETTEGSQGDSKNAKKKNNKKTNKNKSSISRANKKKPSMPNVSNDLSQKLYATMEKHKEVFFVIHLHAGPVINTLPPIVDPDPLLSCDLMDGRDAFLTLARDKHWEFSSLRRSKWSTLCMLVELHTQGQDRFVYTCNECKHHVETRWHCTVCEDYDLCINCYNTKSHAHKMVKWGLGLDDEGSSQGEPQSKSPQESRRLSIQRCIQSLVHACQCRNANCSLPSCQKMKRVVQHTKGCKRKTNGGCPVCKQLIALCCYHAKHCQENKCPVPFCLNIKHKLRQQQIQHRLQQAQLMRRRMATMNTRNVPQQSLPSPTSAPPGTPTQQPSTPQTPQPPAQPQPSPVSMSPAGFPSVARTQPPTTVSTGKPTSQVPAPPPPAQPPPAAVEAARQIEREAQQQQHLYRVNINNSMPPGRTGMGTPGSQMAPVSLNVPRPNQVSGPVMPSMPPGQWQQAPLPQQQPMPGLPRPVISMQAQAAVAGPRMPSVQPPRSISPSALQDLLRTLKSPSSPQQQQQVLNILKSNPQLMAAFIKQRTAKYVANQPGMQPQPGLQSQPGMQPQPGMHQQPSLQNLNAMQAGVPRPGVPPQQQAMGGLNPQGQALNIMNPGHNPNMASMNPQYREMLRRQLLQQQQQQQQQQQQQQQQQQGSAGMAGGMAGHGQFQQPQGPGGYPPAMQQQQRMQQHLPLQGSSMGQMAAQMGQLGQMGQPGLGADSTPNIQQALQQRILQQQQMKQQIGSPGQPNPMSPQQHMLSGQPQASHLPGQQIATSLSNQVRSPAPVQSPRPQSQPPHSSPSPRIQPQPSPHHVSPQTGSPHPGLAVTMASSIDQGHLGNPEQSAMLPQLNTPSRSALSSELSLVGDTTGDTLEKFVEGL
The assay can be described thus: CBP degradation, HiBit technology in A549 CBP HiBit cells (24 h). It is filed as cell-based. The conditions noted are these: 24 hrs post treatment. The method, boiled down: as §1
For orientation: HiBiT is a short tag that completes a luciferase, so light tracks the accessible tagged protein.

A word on the Dmax: it is the greatest extent of degradation seen. One may read the DC50 as the concentration at which degradation of the target reaches its halfway point. Higher therefore signals a less potent degrader.

T1 sequence (Q09472 whole entry): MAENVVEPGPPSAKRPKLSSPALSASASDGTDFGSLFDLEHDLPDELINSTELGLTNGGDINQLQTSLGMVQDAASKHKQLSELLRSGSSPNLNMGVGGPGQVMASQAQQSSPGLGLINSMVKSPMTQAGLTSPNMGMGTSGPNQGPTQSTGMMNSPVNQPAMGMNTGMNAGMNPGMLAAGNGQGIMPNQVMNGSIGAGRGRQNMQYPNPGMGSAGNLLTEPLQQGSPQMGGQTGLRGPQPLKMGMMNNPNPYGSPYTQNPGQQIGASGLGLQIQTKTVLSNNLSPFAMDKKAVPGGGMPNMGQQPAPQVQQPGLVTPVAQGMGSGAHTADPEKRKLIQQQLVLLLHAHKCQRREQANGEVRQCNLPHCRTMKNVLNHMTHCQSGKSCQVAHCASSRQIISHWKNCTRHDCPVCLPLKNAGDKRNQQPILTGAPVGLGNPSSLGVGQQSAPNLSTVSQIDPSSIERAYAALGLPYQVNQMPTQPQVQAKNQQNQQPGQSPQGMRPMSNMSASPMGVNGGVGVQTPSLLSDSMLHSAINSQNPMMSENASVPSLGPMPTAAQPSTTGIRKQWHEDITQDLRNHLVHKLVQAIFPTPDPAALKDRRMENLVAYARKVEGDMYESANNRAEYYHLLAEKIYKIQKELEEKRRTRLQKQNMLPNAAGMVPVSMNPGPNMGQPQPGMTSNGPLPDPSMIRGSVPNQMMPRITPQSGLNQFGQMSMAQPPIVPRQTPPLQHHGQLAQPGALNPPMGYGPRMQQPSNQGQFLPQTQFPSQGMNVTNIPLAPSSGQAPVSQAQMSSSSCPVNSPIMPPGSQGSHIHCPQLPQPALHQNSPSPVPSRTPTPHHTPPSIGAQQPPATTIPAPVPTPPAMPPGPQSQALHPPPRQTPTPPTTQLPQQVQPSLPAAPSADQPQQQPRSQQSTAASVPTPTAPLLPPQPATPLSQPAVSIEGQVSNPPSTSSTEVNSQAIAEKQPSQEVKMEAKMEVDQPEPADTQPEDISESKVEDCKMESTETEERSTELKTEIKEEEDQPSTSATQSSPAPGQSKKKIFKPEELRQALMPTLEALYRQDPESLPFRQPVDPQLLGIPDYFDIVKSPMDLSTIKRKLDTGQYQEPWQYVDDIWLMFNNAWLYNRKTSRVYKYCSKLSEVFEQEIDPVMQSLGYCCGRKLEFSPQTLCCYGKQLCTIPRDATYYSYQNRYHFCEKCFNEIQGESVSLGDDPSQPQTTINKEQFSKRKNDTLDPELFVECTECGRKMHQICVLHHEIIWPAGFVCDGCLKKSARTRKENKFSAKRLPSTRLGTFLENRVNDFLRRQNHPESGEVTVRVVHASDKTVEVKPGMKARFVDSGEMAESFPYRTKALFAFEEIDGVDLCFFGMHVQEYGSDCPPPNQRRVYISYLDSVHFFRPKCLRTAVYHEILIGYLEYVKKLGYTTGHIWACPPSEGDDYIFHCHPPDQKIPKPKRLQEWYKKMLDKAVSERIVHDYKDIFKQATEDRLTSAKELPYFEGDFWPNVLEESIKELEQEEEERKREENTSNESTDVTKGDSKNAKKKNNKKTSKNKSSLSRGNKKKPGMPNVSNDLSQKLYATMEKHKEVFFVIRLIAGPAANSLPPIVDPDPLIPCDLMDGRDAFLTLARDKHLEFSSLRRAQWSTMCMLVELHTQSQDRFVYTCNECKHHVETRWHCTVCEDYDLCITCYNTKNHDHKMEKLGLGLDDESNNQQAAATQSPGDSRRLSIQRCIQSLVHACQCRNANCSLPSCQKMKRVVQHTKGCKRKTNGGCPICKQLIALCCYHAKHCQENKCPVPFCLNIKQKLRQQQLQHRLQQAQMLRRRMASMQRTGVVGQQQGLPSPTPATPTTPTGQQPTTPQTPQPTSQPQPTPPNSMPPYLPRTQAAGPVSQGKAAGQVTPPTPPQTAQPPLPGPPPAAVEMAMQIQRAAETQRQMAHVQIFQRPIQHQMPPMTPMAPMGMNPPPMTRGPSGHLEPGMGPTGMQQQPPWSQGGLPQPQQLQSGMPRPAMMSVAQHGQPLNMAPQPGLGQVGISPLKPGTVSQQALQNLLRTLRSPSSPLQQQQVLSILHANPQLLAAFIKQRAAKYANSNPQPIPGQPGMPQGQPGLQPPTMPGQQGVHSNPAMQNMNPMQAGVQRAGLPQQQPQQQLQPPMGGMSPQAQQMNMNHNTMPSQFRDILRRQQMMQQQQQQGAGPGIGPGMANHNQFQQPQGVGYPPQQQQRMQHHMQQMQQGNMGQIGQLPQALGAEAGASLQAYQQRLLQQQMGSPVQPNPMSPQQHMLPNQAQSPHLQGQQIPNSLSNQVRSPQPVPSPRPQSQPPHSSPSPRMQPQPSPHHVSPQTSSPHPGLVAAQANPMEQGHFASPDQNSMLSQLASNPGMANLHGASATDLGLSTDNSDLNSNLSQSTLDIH

`Cc1oc2ccc(C#CCNC(=O)c3ccc(-c4cc5cccc(-c6cc(C(C)C)c7c(c6)n(C)c(=O)n7C)c5cn4)cn3)cc2c1C1CCC(=O)NC1=O` (stereo not shown) [Example A248, N-(3-(3-(2,6-dioxo-piperidin-3-yl)-2-methylbenzofuran-5-yl)prop-2-yn-1-yl)-5-(8-(7-isopropyl-1,3-dimethyl-2-oxo-2,3-dihydro-1H-benzo [d]imidazol-5-yl)isoquinolin-3-yl) picolinamide]: the Dmax at p300 was over 80%; at CBP, under 20%. Besides, the DC50 on p300 (A549 P300 HiBit cells) is 10 to 99 nM; at CBP it was over 1000 nM.
The corresponding values for `Cc1cc(-c2ncc3c(n2)OCCN3c2ccc3c(c2)n(C)c(=O)n3C)cnc1C(=O)NCC#Cc1cc2ccnc(C3CCC(=O)NC3=O)c2o1` (stereo not shown) [Example A251, 5-(5-(1,3-dimethyl-2-oxo-2,3-dihydro-1H-benzo[d]imidazol-5-yl)-6,7-dihydro-5H-pyrimido[4,5-b][1,4]oxazin-2-yl)-N-(3-(7-(2,6-dioxopiperidin-3-yl)furo[2,3-c]pyridin-2-yl)prop-2-yn-1-yl)-3-methylpicolinamide] are 60 to 79%, under 20%, 10 to 99 nM and over 1000 nM.
The corresponding values for `Cn1c(=O)n(C)c2c(N3CCOCC3)nc(-c3cccc4cc(-c5ccc(C(=O)NCC#Cc6cc7c(C8CCC(=O)NC8=O)cccc7o6)nc5)ncc34)cc21` (stereo not shown) [Example A223, 5-(8-(1,3-dimethyl-4-morpholino-2-oxo-2,3-dihydro-1H-imidazo[4,5-c]pyridin-6-yl)isoquinolin-3-yl)-N-(3-(4-(2,6-dioxopiperidin-3-yl)benzofuran-2-yl)prop-2-yn-1-yl)picolinamide] are over 80%, under 20%, under 1 nM and 100 to 999 nM.
For the compound `Cn1c(=O)n(C)c2cc(-c3cccc4cc(-c5ccc(C(=O)NCC#Cc6ccc7nnn(C8CCC(=O)NC8=O)c7c6)nc5)ncc34)ccc21` (stereo not shown) [Example A163, 5-(8-(1,3-dimethyl-2-oxo-2,3-dihydro-1H-benzo[d]imidazol-5-yl)isoquinolin-3-yl)-N-(3-(1-(2,6-dioxo-piperidin-3-yl)-1H-benzo[d][1,2,3]triazol-6-yl)prop-2-yn-1-yl)picolinamide], the Dmax is over 80% on p300 and under 20% at CBP. Moreover, the DC50 was under 1 nM at p300 (A549 P300 HiBit cells) and over 1000 nM at CBP.
The corresponding values for `CN1Cc2c(-c3cccc4cc(-c5ccc(C(=O)NCC#Cc6ccc7cnn(C8CCC(=O)NC8=O)c7c6)nc5)ncc34)cc(C(C)(F)F)cc2N(C)C1=O` (stereo not shown) [Example B9, 5-(8-(7-(1,1-Difluoroethyl)-1,3-dimethyl-2-oxo-1,2,3,4-tetrahydroquinazolin-5-yl)isoquinolin-3-yl)-N-(3-(1-(2,6-dioxopiperidin-3-yl)-1H-indazol-6-yl)prop-2-yn-1-yl)picolinamide] are over 80%, 40 to 59%, 1 to 9.9 nM and 10 to 99 nM.
The corresponding values for `Cc1cc2c(N3CCCc4nc(-c5ccc(C(=O)NCC#Cc6ccc7occ(C8CCC(=O)NC8=O)c7c6)nc5)ncc43)nc(N3CCOCC3)nc2n(C)c1=O` (stereo not shown) [Example B51, 5-(5-(6,8-dimethyl-2-morpholino-7-oxo-7,8-dihydropyrido[2,3-d]pyrimidin-4-yl)-5,6,7,8-tetrahydropyrido[3,2-d]pyrimidin-2-yl)-N-(3-(3-(2,6-dioxopiperidin-3-yl)benzofuran-5-yl)prop-2-yn-1-yl)picolinamide] are 40 to 59%, under 20%, 1 to 9.9 nM and over 1000 nM.
The corresponding values for `Cn1c(=O)n(C)c2cc(N3CCCc4nc(-c5ccc(C(=O)NCC#Cc6ccc7occ(C8CCC(=O)NC8=O)c7c6)nc5)ncc43)ccc21` (stereo not shown) [Example A132, 5-(5-(1,3-dimethyl-2-oxo-2,3-dihydro-1H-benzo[d]imidazol-5-yl)-5,6,7,8-tetrahydropyrido[3,2-d]pyrimidin-2-yl)-N-(3-(3-(2,6-dioxo-piperidin-3-yl)benzofuran-5-yl)prop-2-yn-1-yl)picolinamide] are over 80%, under 20%, 1 to 9.9 nM and over 1000 nM.
Take `Cc1cc(-c2cc3cccc(-c4ccc5c(c4)n(C)c(=O)n5C)c3cn2)cnc1C(=O)NCC#Cc1ccc2occ(C3CCC(=O)NC3=O)c2c1` (stereo not shown) [Example A155, 5-(8-(1,3-dimethyl-2-oxo-2,3-dihydro-1H-benzo[d]imidazol-5-yl)isoquinolin-3-yl)-N-(3-(3-(2,6-dioxo-piperidin-3-yl)benzofuran-5-yl)prop-2-yn-1-yl)-3-methylpicolinamide]: the Dmax on p300 is over 80%; on CBP, under 20%. In addition, the results for the DC50 at p300 (A549 P300 HiBit cells) and on CBP were 1 to 9.9 nM and over 1000 nM, respectively.
Turning to `Cn1c(=O)n(C)c2c(N3CCC(C)(O)CC3)nc(-c3cccc4cc(-c5ccc(C(=O)NCC#Cc6cc7c(C8CCC(=O)NC8=O)cccc7o6)nc5)ncc34)cc21` (stereo not shown) [Example A258, N-(3-(4-(2,6-dioxo-piperidin-3-yl)benzofuran-2-yl)prop-2-yn-1-yl)-5-(8-(4-(4-hydroxy-4-methylpiperidin-1-yl)-1,3-dimethyl-2-oxo-2,3-dihydro-1H-imidazo[4,5-c]pyridin-6-yl)isoquinolin-3-yl)picolinamide], the Dmax at p300 is over 80%; at CBP it was under 20%. For the same compound, the DC50 at p300 (A549 P300 HiBit cells) was under 1 nM; on CBP, over 1000 nM.
For `CC(C)c1cc(-c2cccc3cc(-c4ccc(C(=O)NCC#Cc5cc6cccc(C7CCC(=O)NC7=O)c6o5)nc4)ncc23)cc2c1n(C)c(=O)n2C` (stereo not shown) [Example A216, N-(3-(7-(2,6-dioxo-piperidin-3-yl)benzofuran-2-yl)prop-2-yn-1-yl)-5-(8-(7-isopropyl-1,3-dimethyl-2-oxo-2,3-dihydro-1H-benzo [d]imidazol-5-yl)isoquinolin-3-yl)picolinamide], the figures for the Dmax at p300 and at CBP were over 80% and under 20%, respectively. Besides, the results for the DC50 at p300 (A549 P300 HiBit cells) and on CBP were 1 to 9.9 nM and over 1000 nM, respectively.
The corresponding values for `CCc1cc(-c2cccc3cc(-c4ccc(C(=O)NCC#Cc5ccc6c(c5)n(C5CCC(=O)NC5=O)c(=O)n6C)nc4)ncc23)c2cc(C)c(=O)n(C)c2c1` (stereo not shown) [Example B8, N-(3-(3-(2,6-Dioxopiperidin-3-yl)-1-methyl-2-oxo-2,3-dihydro-1H-benzo[d]imidazol-5-yl)prop-2-yn-1-yl)-5-(8-(7-ethyl-1,3-dimethyl-2-oxo-1,2-dihydroquinolin-5-yl)isoquinolin-3-yl)picolinamide] are over 80%, 40 to 59%, 1 to 9.9 nM and 10 to 99 nM.
The corresponding values for `Cc1cc2c(N3CCCc4nc(-c5ccc(C(=O)NCC#Cc6cc7c(C8CCC(=O)NC8=O)nccc7s6)nc5)ncc43)cc(C3CCOCC3)cc2n(C)c1=O` (stereo not shown) [Example B81, 5-(5-(1,3-dimethyl-2-oxo-7-(tetrahydro-2H-pyran-4-yl)-1,2-dihydroquinolin-5-yl)-5,6,7,8-tetrahydropyrido[3,2-d]pyrimidin-2-yl)-N-(3-(4-(2,6-dioxopiperidin-3-yl)thieno[3,2-c]pyridin-2-yl)prop-2-yn-1-yl)picolinamide] are over 80%, 40 to 59%, 1 to 9.9 nM and 10 to 99 nM.
The corresponding values for `Cn1c(=O)n(C)c2cc(-c3cccc4cc(-c5ccc(C(=O)NCC#Cc6ccc7occ(C8CCC(=O)NC8=O)c7c6)nc5)ncc34)ccc21` (stereo not shown) [Example A119, 5-(8-(1,3-dimethyl-2-oxo-2,3-dihydro-1H-benzo[d]imidazol-5-yl)isoquinolin-3-yl)-N-(3-(3-(2,6-dioxo-piperidin-3-yl)benzofuran-5-yl)prop-2-yn-1-yl)picolinamide] are over 80%, under 20%, 1 to 9.9 nM and over 1000 nM.
As for `CC(C)c1cc(N2CCN(C)c3cc(-c4ccc(C(=O)NCC#Cc5cccc(NC6CCC(=O)NC6=O)c5)nc4)ncc32)cc2c1n(C)c(=O)n2C` (stereo not shown) [Example A270, N-(3-(3-((2,6-dioxopiperidin-3-yl)amino)phenyl)prop-2-yn-1-yl)-5-(4-(7-isopropyl-1,3-dimethyl-2-oxo-2,3-dihydro-1H-benzo[d]imidazol-5-yl)-1-methyl-1,2,3,4-tetrahydro-pyrido[3,4-b]pyrazin-7-yl)picolinamide], the Dmax at p300 was over 80%; at CBP, 60 to 79%. In addition, the figures for the DC50 on p300 (A549 P300 HiBit cells) and on CBP were under 1 nM and 1 to 9.9 nM, respectively.
For `Cc1cc(-c2ncc3c(n2)OCCN3c2ccc3c(c2)n(C)c(=O)n3C)cnc1C(=O)NCC#Cc1ccc2occ(C3CCC(=O)NC3=O)c2c1` (stereo not shown) [Example A93, 5-(5-(1,3-dimethyl-2-oxo-2,3-dihydro-1H-benzo[d]imidazol-5-yl)-6,7-dihydro-5H-pyrimido[4,5-b][1,4]oxazin-2-yl)-N-(3-(3-(2,6-dioxopiperidin-3-yl)benzofuran-5-yl)prop-2-yn-1-yl)-3-methylpicolinamide], at p300 (A549 P300 HiBit cells), the DC50 lay in the range of 10 to 99 nM and the “P300 A549 2 h HiBit DMax (%)” value is given as “D (“D”: 20-39%)”. At CBP, the “CBP A549 24 h HiBit DMax (%)” value is listed as “E (“E”: < 20%)” and the DC50 is over 1000 nM.
Regarding `Cc1cc(-c2cc3cccc(-c4ccc5c(c4)n(C)c(=O)n5C)c3cn2)cnc1C(=O)NCC#Cc1cc2c(C3CCC(=O)NC3=O)cccc2o1` (stereo not shown) [Example A180, 5-(8-(1,3-dimethyl-2-oxo-2,3-dihydro-1H-benzo[d]imidazol-5-yl)isoquinolin-3-yl)-N-(3-(4-(2,6-dioxo-piperidin-3-yl)benzofuran-2-yl)prop-2-yn-1-yl)-3-methylpicolinamide], the Dmax was over 80% at p300 and under 20% at CBP. In addition, the DC50 on p300 (A549 P300 HiBit cells) is 1 to 9.9 nM; at CBP, over 1000 nM.
